One experiment addresses Substance-P receptor (Homo sapiens, UniProt P25103). Kind of experiment: Inhibition of [3H]-substance P binding to human NK1 receptor expressed in chinese hamster ovary cells. Type of experiment: cell-based, CHO.
The test system of the next experiment is Mustela putorius furo. In words: In vivo antiemetic activity against radiation-induced emesis in ferret. Type of experiment: functional.

The values that follow come from ChEMBL document CHEMBL1129726, “Tetrazole NK1 receptor antagonists: The identification of an exceptionally potent orally active antiemetic compound” (Bioorg Med Chem Lett, 1996).

Sequence of Substance-P receptor (P25103 whole entry): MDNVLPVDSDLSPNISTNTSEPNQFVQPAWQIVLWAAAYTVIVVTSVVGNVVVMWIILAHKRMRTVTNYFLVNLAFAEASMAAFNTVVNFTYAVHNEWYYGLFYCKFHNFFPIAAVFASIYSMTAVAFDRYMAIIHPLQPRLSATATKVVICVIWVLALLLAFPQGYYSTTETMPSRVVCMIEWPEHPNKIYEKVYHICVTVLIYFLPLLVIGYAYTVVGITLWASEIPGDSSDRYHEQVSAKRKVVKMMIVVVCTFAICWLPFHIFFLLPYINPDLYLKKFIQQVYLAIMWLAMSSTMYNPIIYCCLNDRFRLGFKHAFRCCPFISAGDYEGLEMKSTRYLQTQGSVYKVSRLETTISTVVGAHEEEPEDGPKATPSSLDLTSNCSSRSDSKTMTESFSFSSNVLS

A word on the Ki: it is the dissociation constant of the complex between target and ligand, obtained from inhibition or displacement. A lower Ki goes with tighter binding. `COc1ccc(-n2nnnc2C)cc1CN[C@H]1CCCN[C@H]1c1ccccc1.Cl.Cl` gave a Ki at Substance-P receptor of 0.0501 nM. The ED90 in the experiment with Mustela putorius furo came to 0.15 mg/kg. `CCCc1nnnn1-c1ccc(OC)c(CN[C@H]2CCCN[C@H]2c2ccccc2)c1.Cl.Cl` showed an inhibition constant Ki at Substance-P receptor of 0.0398 nM. This compound also yielded an ED90 with Mustela putorius furo above 3 mg/kg. With `COc1ccc(-n2nnnc2N)cc1CN[C@H]1CCCN[C@H]1c1ccccc1`, at Substance-P receptor, the Ki was 1 nM.

Regarding `COc1ccc(-n2nnnc2S(C)(=O)=O)cc1CN[C@H]1CCCN[C@H]1c1ccccc1.Cl.Cl`, affinity at Substance-P receptor was put at a Ki of 0.0631 nM. The same compound showed an ED90 in the experiment on Mustela putorius furo above 1 mg/kg. `CCN(CC)c1nnnn1-c1ccc(OC)c(CN[C@H]2CCCN[C@H]2c2ccccc2)c1`: the Ki on Substance-P receptor was 2 nM. The compound `CCc1nnnn1-c1ccc(OC)c(CN[C@H]2CCCN[C@H]2c2ccccc2)c1.Cl.Cl` had a Ki on Substance-P receptor of 0.0501 nM. Further, in the experiment on Mustela putorius furo, the ED90 worked out at 0.3 mg/kg. Taken in the same sequence, the figures for `COc1ccc(-n2nnnc2SC)cc1CN[C@H]1CCCN[C@H]1c1ccccc1.Cl.Cl` were 0.0398 nM and 1 mg/kg. Take `COc1ccc(-n2cnnn2)cc1CN[C@H]1CCCN[C@H]1c1ccccc1.Cl.Cl`: the Ki on Substance-P receptor is 0.0398 nM. Also, in the experiment with Mustela putorius furo, the ED90 was 0.1 mg/kg. The compound `COc1ccc(-n2nnnc2-c2ccccc2)cc1CN[C@H]1CCCN[C@H]1c1ccccc1.Cl.Cl` had a Ki at Substance-P receptor of 0.398 nM. In the experiment with Mustela putorius furo, this compound had an ED90 above 1 mg/kg.

`COc1ccc(-n2nnnc2NC(C)=O)cc1CN[C@H]1CCCN[C@H]1c1ccccc1` showed a Ki at Substance-P receptor of 0.251 nM. As for `COc1ccc(-n2nnnc2C2CC2)cc1CN[C@H]1CCCN[C@H]1c1ccccc1.Cl.Cl`, the affinity at Substance-P receptor corresponds to a Ki of 0.0794 nM. Also, in the experiment with Mustela putorius furo, the ED90 was above 1 mg/kg.

`COc1ccc(-n2nnnc2C(F)(F)F)cc1CN[C@H]1CCCN[C@H]1c1ccccc1.Cl.Cl` [VOFOPITANT DIHYDROCHLORIDE] had a Ki on Substance-P receptor of 0.0251 nM. The ED90 in the experiment on Mustela putorius furo was 0.03 mg/kg.
